Measured values published in publication PMC11234416 (Advanced Science, 2024).

How the values were obtained:
rice GSNOR = target: T1, rice GSNOR (Oryza sativa, UniProt Q0DWH1); experiment: surface plasmon resonance (OpenSPR); assay type: binding
T1 construct: gene Os02g0815500

GSNOR (M. oryzae) = target: T2, GSNOR (M. oryzae) (Pyricularia oryzae, UniProt G4N4N6); experiment: biochemical
T2 construct: gene MGG_06011
T2 sequence (G4N4N6 1-381): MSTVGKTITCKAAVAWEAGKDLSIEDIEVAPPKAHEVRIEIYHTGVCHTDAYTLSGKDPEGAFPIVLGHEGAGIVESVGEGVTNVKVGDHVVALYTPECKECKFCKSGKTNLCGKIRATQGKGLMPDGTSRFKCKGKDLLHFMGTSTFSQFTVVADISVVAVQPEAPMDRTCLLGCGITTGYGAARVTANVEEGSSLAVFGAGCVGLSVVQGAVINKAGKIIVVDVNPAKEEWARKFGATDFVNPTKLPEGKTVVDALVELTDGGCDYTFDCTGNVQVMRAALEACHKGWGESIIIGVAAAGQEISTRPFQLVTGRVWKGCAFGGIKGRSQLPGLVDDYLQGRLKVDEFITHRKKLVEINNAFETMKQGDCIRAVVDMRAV

T1 sequence (Q0DWH1 whole entry): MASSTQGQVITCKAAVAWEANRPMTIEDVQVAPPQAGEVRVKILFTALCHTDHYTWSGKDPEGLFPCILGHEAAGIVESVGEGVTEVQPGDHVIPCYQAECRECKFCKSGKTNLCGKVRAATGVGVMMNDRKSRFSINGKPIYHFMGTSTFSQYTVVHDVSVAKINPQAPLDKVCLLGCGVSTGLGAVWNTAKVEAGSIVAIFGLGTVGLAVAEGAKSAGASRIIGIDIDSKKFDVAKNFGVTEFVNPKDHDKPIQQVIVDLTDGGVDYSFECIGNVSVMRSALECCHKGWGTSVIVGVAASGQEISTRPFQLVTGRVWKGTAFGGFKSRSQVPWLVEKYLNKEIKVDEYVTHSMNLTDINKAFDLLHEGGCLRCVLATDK

## Cc1cc(C(N)=O)ccc1-n1c(CCC(=O)O)ccc1-c1ccc(-n2ccnc2)cc1 [N6022]
Rice GSNOR
  Kd: 288 µM
GSNOR (M. oryzae)
  Kd: 55.8 µM
